Experiment [1] deals with HeLa. Nature of the experiment: Proliferation assay (crystal violet), HeLa. The class given is cell-based. The note with it: Homo sapiens, 96 h, 4 days, read-out: Inhibition of proliferation IC50 HeLa. A digest of the protocol: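 Tumour cells seeded at 1000–5000 cells/well in medium with 10% FCS, dosed after 24 h at 0.001–10 μM (0.5% DMSO final) for 4 days. Cell number read by crystal-violet staining after glutaraldehyde fixation (A595), normalised to zero-point plate (0%) and untreated cells (100%); IC50 from 4-parameter fit.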

For experiment [2], the target named is CDK2/CycE (Homo sapiens (Human), UniProt P24941). Nature of the experiment: CDK2/CycE kinase assay (TR-FRET). It is filed as biochemical. To be noted: 10 μM ATP; read-out: CDK2 avg (IC50 [mol/l]). A digest of the protocol:
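GST-tagged human CDK2 and GST-CycE from Sf9 cells (~130 ng/ml) were preincubated with compound for 15 min at 22 °C. Reaction with 10 μM ATP and 0.75 μM biotinylated peptide (final) ran 25 min at 22 °C, pH 8.0. Phospho-peptide was read by TR-FRET (665/620 nm ratio, anti-pRB antibody, Eu donor) and normalised to no-enzyme and no-inhibitor controls.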

Here are results for 15 molecules from US9682995B2, “Amino-substituted isothiazoles” (BAYER PHARMA AKTIENGESELLSCHAFT, priority 2013, dated 2017).

A value given as a limit tells only on which side of the number the result lay.

`CCOc1ccc(NC(=O)c2c(C)nsc2Nc2cnc3ccccc3n2)cn1` [Example 119, N-(6-Ethoxypyridin-3-yl)-3-methyl-5-(quinoxalin-2-ylamino)-1,2-thiazole-4-carboxamide]: the IC50 was 3.3 µM in experiment [1] and greater than 20 µM in experiment [2].
As to `Cc1nsc(Nc2nc3c(C(F)(F)F)cccc3s2)c1C(=O)Nc1ccc(Cl)c(Cl)c1` [Example 102, N-(3,4-Dichlorophenyl)-3-methyl-5-{[4-(trifluoromethyl)-1,3-benzothiazol-2-yl]amino}-1,2-thiazole-4-carboxamide], the IC50 in experiment [1] is 7.3 µM; in experiment [2] it was greater than 20 µM.
On the same counts, the results for `COC(=O)c1ccc(Nc2snc(C)c2C(=O)Nc2ccc(OC)nc2)nc1` [Example 31, Methyl 6-({4-[(6-methoxypyridin-3-yl)carbamoyl]-3-methyl-1,2-thiazol-5-yl}amino)-nicotinate] are greater than 10 µM and greater than 20 µM.
The matching figures for `Cc1nsc(Nc2ccn3nccc3n2)c1C(=O)Nc1ccc(F)c(F)c1` [Example 57, N-(3,4-Difluorophenyl)-3-methyl-5-(pyrazolo[1,5-a]pyrimidin-5-ylamino)-1,2-thiazole-4-carboxamide]: 2.9 µM and greater than 20 µM.
On to `COc1ccc(NC(=O)c2c(C)nsc2Nc2nc3c(C(F)(F)F)cccc3s2)cc1F` [Example 47, N-(3-Fluoro-4-methoxyphenyl)-3-methyl-5-{[4-(trifluoromethyl)-1,3-benzothiazol-2-yl]amino}-1,2-thiazole-4-carboxamide], for which the IC50 was 0.37 µM in experiment [1] and greater than 20 µM in experiment [2].
On the same counts, the results for `CCc1ccccc1NC(=O)c1c(C)nsc1Nc1nccc(OC)n1` [Example 16, N-(2-Ethylphenyl)-5-[(4-methoxypyrimidin-2-yl)amino]-3-methyl-1,2-thiazole-4-carboxamide] are greater than 10 µM and greater than 20 µM.
`CCc1ccccc1NC(=O)c1c(C)nsc1Nc1nc2ccccc2o1` [Example 11, 5-(1,3-Benzoxazol-2-ylamino)-N-(2-ethylphenyl)-3-methyl-1,2-thiazole-4-carboxamide]: the IC50 in experiment [1] was 3.7 µM; in experiment [2], greater than 20 µM.
Consider `Cc1nsc(Nc2cnc3ccccc3n2)c1C(=O)Nc1ccc(OC(C)C)nc1` [Example 122, N-(6-Isopropoxypyridin-3-yl)-3-methyl-5-(quinoxalin-2-ylamino)-1,2-thiazole-4-carboxamide], for which the figures for the IC50 in experiment [1] and in experiment [2] were 1.8 µM and greater than 20 µM, respectively.
`COc1ccc(NC(=O)c2c(C)nsc2Nc2cnc3cccc(C)c3n2)cn1` [Example 22, N-(6-methoxypyridin-3-yl)-3-methyl-5-[(8-methylquinoxalin-2-yl)amino]-1,2-thiazole-4-carboxamide]: the IC50 in experiment [1] was 1.3 µM; in experiment [2] it was greater than 20 µM.
Regarding `Cc1nsc(Nc2cc(C#N)ccn2)c1C(=O)Nc1ccc(Cl)c(F)c1` [Example 54, N-(4-Chloro-3-fluorophenyl)-5-[(4-cyanopyridin-2-yl)amino]-3-methyl-1,2-thiazole-4-carboxamide], the IC50 is 0.8 µM in experiment [1] and greater than 20 µM in experiment [2].
As to `Cc1nsc(Nc2ccc(C#N)cn2)c1C(=O)Nc1ccc(Cl)c(F)c1` [Example 52, N-(4-Chloro-3-fluorophenyl)-5-[(5-cyanopyridin-2-yl)amino]-3-methyl-1,2-thiazole-4-carboxamide], the results for the IC50 in experiment [1] and in experiment [2] were 0.24 µM and greater than 20 µM, respectively.
On the same counts, the results for `Cc1nsc(Nc2cc(C#N)ccn2)c1C(=O)Nc1ccc(Oc2ccccc2)nc1` [Example 111, 5-[(4-Cyanopyridin-2-yl)amino]-3-methyl-N-(6-phenoxypyridin-3-yl)-1,2-thiazole-4-carboxamide] are 2.1 µM and greater than 20 µM.
On the same counts, the results for `CCc1ccccc1NC(=O)c1c(C)nsc1Nc1ccc(C#N)cn1` [Example 7, 5-[(5-Cyanopyridin-2-yl)amino]-N-(2-ethylphenyl)-3-methyl-1,2-thiazole-4-carboxamide] are 3 µM and greater than 20 µM.
The matching figures for `CCc1ccccc1NC(=O)c1c(C)nsc1Nc1cc(-n2ccnc2)ncn1` [Example 9, N-(2-Ethylphenyl)-5-{[6-(1H-imidazol-1-yl)pyrimidin-4-yl]amino}-3-methyl-1,2-thiazole-4-carboxamide]: 2.4 µM and greater than 20 µM.
`Cc1nsc(Nc2nc3c(C(F)(F)F)cccc3s2)c1C(=O)Nc1ccc(Cl)c(F)c1` [Example 53, N-(4-Chloro-3-fluorophenyl)-3-methyl-5-{[4-(trifluoromethyl)-1,3-benzothiazol-2-yl]amino}-1,2-thiazole-4-carboxamide]: the IC50 was 1 µM in experiment [1] and greater than 20 µM in experiment [2].
